Experimental data from PMC2701686 (Analytical biochemistry, 2008).

Molecular target: thyroid hormone receptor β (TRβ) (Homo sapiens, UniProt P10828)
Test: biochemical

Sequence of thyroid hormone receptor β (TRβ) (P10828 82-456): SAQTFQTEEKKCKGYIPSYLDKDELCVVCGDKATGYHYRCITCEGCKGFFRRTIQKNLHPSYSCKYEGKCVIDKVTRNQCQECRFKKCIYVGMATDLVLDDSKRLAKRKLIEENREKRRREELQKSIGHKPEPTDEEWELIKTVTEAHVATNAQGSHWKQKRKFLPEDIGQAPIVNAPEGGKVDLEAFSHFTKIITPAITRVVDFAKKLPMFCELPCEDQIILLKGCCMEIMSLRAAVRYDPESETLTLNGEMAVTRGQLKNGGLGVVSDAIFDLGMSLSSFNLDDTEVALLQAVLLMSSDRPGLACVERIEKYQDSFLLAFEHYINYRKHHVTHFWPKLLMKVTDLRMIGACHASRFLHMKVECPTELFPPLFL
Sequence of thyroid hormone receptor β (TRβ) (P19793 whole entry partner): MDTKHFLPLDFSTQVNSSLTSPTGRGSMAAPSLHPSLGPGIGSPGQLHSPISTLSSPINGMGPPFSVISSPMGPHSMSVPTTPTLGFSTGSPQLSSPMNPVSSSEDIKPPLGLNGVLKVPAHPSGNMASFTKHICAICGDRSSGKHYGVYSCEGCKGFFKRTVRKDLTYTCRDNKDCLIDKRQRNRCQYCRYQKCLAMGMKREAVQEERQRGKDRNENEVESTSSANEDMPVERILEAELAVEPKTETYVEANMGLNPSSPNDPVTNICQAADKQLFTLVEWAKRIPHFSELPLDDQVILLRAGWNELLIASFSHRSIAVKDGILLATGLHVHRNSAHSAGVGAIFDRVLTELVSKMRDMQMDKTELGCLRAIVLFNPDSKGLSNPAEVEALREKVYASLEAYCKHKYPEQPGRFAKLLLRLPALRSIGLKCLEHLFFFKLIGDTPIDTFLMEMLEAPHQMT
Sequence of thyroid hormone receptor β (TRβ) (Q60974 2057-2453 partner): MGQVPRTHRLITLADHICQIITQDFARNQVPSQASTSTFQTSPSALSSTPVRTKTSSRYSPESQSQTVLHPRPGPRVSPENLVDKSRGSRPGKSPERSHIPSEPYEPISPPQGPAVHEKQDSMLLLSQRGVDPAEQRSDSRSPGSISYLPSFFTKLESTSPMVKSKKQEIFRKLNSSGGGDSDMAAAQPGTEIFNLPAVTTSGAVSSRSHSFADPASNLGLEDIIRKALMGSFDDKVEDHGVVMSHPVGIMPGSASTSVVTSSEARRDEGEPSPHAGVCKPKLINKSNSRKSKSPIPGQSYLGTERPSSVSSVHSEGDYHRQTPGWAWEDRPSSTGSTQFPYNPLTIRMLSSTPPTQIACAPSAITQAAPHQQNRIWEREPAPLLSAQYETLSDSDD
Sequence of thyroid hormone receptor β (TRβ) (Q9Y6Q9 627-829 partner): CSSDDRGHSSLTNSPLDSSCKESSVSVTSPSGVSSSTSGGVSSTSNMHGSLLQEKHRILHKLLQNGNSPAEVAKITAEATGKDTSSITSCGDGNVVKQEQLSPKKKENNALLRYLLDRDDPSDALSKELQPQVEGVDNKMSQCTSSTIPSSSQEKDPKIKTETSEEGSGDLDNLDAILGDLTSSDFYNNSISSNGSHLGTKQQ

- IC50: 1.09 ± 0.08 µM
Structure (SMILES): Cc1cc(OCC(=O)O)cc(C)c1Cc1cc(C#Cc2ccc([N+](=O)[O-])cc2)c(O)c(C(C)C)c1 [NH-3, {4-[4-hydroxy-3’-isopropyl-5-(4-nitrophenylethynyl)benzyl]-3,5-dimethylphenoxy}acetic acid]
